Converted amounts (≈) assume the structure as drawn.
How the values were obtained:
Assay type in all cases: functional
[1] = tested on: Enterobacter cloacae; experiment: Antibacterial activity against Enterobacter cloacae EB5; conditions: Enterobacter cloacae; read-out: MIC
[2] = tested on: Enterococcus faecium; experiment: Antibacterial activity against Enterococcus faecium; conditions: Enterococcus faecium; read-out: MIC
[3] = tested on: Escherichia coli; experiment: Antibacterial activity against Escherichia coli EC14; conditions: Escherichia coli; read-out: MIC
[4] = tested on: Staphylococcus aureus; experiment: Antibacterial activity against penicillin G susceptible Staphylococcus aureus; conditions: Staphylococcus aureus; read-out: MIC
[5] = tested on: Klebsiella pneumoniae; experiment: Antibacterial activity against Klebsiella pneumoniae X26; conditions: Klebsiella pneumoniae; read-out: MIC
[6] = tested on: Enterobacter cloacae; experiment: Antibacterial activity against Enterobacter cloacae 265A; conditions: Enterobacter cloacae; read-out: MIC
[7] = tested on: Streptococcus pneumoniae; experiment: Antibacterial activity against Streptococcus pneumoniae; conditions: Streptococcus pneumoniae; read-out: MIC
[8] = tested on: Escherichia coli; experiment: Antibacterial activity against Escherichia coli TEM; conditions: Escherichia coli; read-out: MIC
[9] = tested on: Staphylococcus aureus; experiment: Antibacterial activity against penicillin G resistance Staphylococcus aureus; conditions: Staphylococcus aureus; read-out: MIC
[10] = tested on: Klebsiella pneumoniae; experiment: microbe, parasite or virus in culture; conditions: Klebsiella pneumoniae; read-out: MIC
Description: Antibacterial activity against Klebsiella pneumoniae 1082E

[11] = tested on: Streptococcus pyogenes; experiment: Antibacterial activity against Streptococcus pyogenes; conditions: Streptococcus pyogenes; read-out: MIC
[12] = tested on: Pseudomonas aeruginosa; experiment: Antibacterial activity against Pseudomonas aeruginosa X528
[13] = tested on: Serratia marcescens; experiment: Antibacterial activity against Serratia marcescens SE3; conditions: Serratia marcescens; read-out: MIC
[14] = tested on: Pseudomonas aeruginosa; experiment: Antibacterial activity against Pseudomonas aeruginosa PS18; conditions: Pseudomonas aeruginosa; read-out: MIC
[15] = Pseudomonas aeruginosa, read-out: MIC

SMILES: CO/N=C(\C(=O)N[C@@H]1C(=O)N2C(C(=O)[O-])=C(C[n+]3ccc4sc(N)cc4c3)CS[C@H]12)c1csc(N)n1
- MIC [1]: 0.06 µg/mL (≈ 0.11 µM)
- MIC [2]: > 128 µg/mL
- MIC [3]: 0.015 µg/mL (≈ 0.0275 µM)
- MIC [4]: 0.5 µg/mL (≈ 0.916 µM)
- MIC [5]: < 0.008 µg/mL
- MIC [6]: 8 µg/mL (≈ 14.7 µM)
- MIC [7]: < 0.008 µg/mL
- MIC [8]: 0.03 µg/mL (≈ 0.055 µM)
- MIC [9]: 4 µg/mL (≈ 7.33 µM)
- MIC [10]: 2 µg/mL (≈ 3.67 µM)
- MIC [11]: 0.015 µg/mL (≈ 0.0275 µM)
- MIC [12, 15]: 1 µg/mL (≈ 1.83 µM)
- MIC [13]: 0.06 µg/mL (≈ 0.11 µM)
- MIC [14]: 4 µg/mL (≈ 7.33 µM)

SMILES: CO/N=C(\C(=O)N[C@@H]1C(=O)N2C(C(=O)[O-])=C(C[n+]3cccc4ccoc43)CS[C@H]12)c1csc(N)n1
- MIC [1]: 0.125 µg/mL (≈ 0.243 µM)
- MIC [2]: > 128 µg/mL
- MIC [3]: < 0.008 µg/mL
- MIC [4]: 2 µg/mL (≈ 3.89 µM)
- MIC [5]: < 0.008 µg/mL
- MIC [6]: 8 µg/mL (≈ 15.5 µM)
- MIC [7]: < 0.008 µg/mL
- MIC [8]: 0.06 µg/mL (≈ 0.117 µM)
- MIC [9]: 16 µg/mL (≈ 31.1 µM)
- MIC [10]: 4 µg/mL (≈ 7.77 µM)
- MIC [11]: < 0.008 µg/mL
- MIC [12, 15]: 4 µg/mL (≈ 7.77 µM)
- MIC [13]: 0.125 µg/mL (≈ 0.243 µM)
- MIC [14]: 16 µg/mL (≈ 31.1 µM)

SMILES: CO/N=C(\C(=O)N[C@@H]1C(=O)N2C(C(=O)[O-])=C(C[n+]3ccc4[nH]c(C)nc4c3)CS[C@H]12)c1csc(N)n1
- MIC [2]: 128 µg/mL (≈ 242 µM)
- MIC [3]: 0.008 µg/mL (≈ 0.0151 µM)
- MIC [4]: 2 µg/mL (≈ 3.78 µM)
- MIC [5]: 0.008 µg/mL (≈ 0.0151 µM)
- MIC [6]: 8 µg/mL (≈ 15.1 µM)
- MIC [7]: 0.008 µg/mL (≈ 0.0151 µM)
- MIC [8]: 0.008 µg/mL (≈ 0.0151 µM)
- MIC [9]: 8 µg/mL (≈ 15.1 µM)
- MIC [10]: 2 µg/mL (≈ 3.78 µM)
- MIC [11]: 0.008 µg/mL (≈ 0.0151 µM)
- MIC [12, 15]: 2 µg/mL (≈ 3.78 µM)
- MIC [14]: 8 µg/mL (≈ 15.1 µM)

SMILES: CCc1nc2c[n+](CC3=C(C(=O)[O-])N4C(=O)[C@@H](NC(=O)/C(=N\OC)c5csc(N)n5)[C@H]4SC3)ccc2s1
- MIC [2]: 128 µg/mL (≈ 229 µM)
- MIC [3]: 0.015 µg/mL (≈ 0.0268 µM)
- MIC [4]: 1 µg/mL (≈ 1.79 µM)
- MIC [5]: 0.008 µg/mL (≈ 0.0143 µM)
- MIC [6]: 4 µg/mL (≈ 7.15 µM)
- MIC [7]: 0.008 µg/mL (≈ 0.0143 µM)
- MIC [8]: 0.015 µg/mL (≈ 0.0268 µM)
- MIC [9]: 4 µg/mL (≈ 7.15 µM)
- MIC [10]: 2 µg/mL (≈ 3.57 µM)
- MIC [11]: 0.008 µg/mL (≈ 0.0143 µM)
- MIC [12, 15]: 4 µg/mL (≈ 7.15 µM)
- MIC [14]: 16 µg/mL (≈ 28.6 µM)

SMILES: CO/N=C(\C(=O)N[C@@H]1C(=O)N2C(C(=O)[O-])=C(C[n+]3ccc4nc(C(C)(C)C)sc4c3)CS[C@H]12)c1csc(N)n1
- MIC [1]: 1 µg/mL (≈ 1.7 µM)
- MIC [2]: 128 µg/mL (≈ 218 µM)
- MIC [4]: 1 µg/mL (≈ 1.7 µM)
- MIC [6]: 16 µg/mL (≈ 27.2 µM)
- MIC [7]: 0.015 µg/mL (≈ 0.0255 µM)
- MIC [9]: 4 µg/mL (≈ 6.81 µM)
- MIC [10]: 4 µg/mL (≈ 6.81 µM)
- MIC [11]: 0.015 µg/mL (≈ 0.0255 µM)
- MIC [13]: 2 µg/mL (≈ 3.4 µM)
- MIC [14]: 128 µg/mL (≈ 218 µM)

SMILES: CO/N=C(\C(=O)N[C@@H]1C(=O)N2C(C(=O)[O-])=C(C[n+]3ccc4oc(C)nc4c3)CS[C@H]12)c1csc(N)n1
- MIC [2]: 128 µg/mL (≈ 242 µM)
- MIC [4]: 1 µg/mL (≈ 1.89 µM)
- MIC [5]: 0.015 µg/mL (≈ 0.0283 µM)
- MIC [6]: 8 µg/mL (≈ 15.1 µM)
- MIC [7]: 0.015 µg/mL (≈ 0.0283 µM)
- MIC [9]: 8 µg/mL (≈ 15.1 µM)
- MIC [10]: 4 µg/mL (≈ 7.55 µM)
- MIC [11]: 0.015 µg/mL (≈ 0.0283 µM)
- MIC [12, 15]: 4 µg/mL (≈ 7.55 µM)
- MIC [14]: 8 µg/mL (≈ 15.1 µM)

SMILES: CO/N=C(\C(=O)N[C@@H]1C(=O)N2C(C(=O)[O-])=C(C[n+]3csc(CCOC=O)c3C)CS[C@H]12)c1csc(N)n1
- MIC [1]: 0.06 µg/mL (≈ 0.106 µM)
- MIC [2]: 16 µg/mL (≈ 28.2 µM)
- MIC [3]: 0.03 µg/mL (≈ 0.0529 µM)
- MIC [4]: 1 µg/mL (≈ 1.76 µM)
- MIC [5]: 0.015 µg/mL (≈ 0.0265 µM)
- MIC [6]: 2 µg/mL (≈ 3.53 µM)
- MIC [7]: 0.015 µg/mL (≈ 0.0265 µM)
- MIC [8]: 0.03 µg/mL (≈ 0.0529 µM)
- MIC [9]: 2 µg/mL (≈ 3.53 µM)
- MIC [10]: 4 µg/mL (≈ 7.06 µM)
- MIC [11]: 0.015 µg/mL (≈ 0.0265 µM)
- MIC [12, 15]: 8 µg/mL (≈ 14.1 µM)
- MIC [13]: 0.06 µg/mL (≈ 0.106 µM)
- MIC [14]: 16 µg/mL (≈ 28.2 µM)

SMILES: CO/N=C(\C(=O)N[C@@H]1C(=O)N2C(C(=O)[O-])=C(C[n+]3ccc4scnc4c3)CS[C@H]12)c1csc(N)n1
- MIC [3]: 0.015 µg/mL (≈ 0.0282 µM)
- MIC [4]: 1 µg/mL (≈ 1.88 µM)
- MIC [5]: 0.015 µg/mL (≈ 0.0282 µM)
- MIC [6]: 8 µg/mL (≈ 15 µM)
- MIC [7]: 0.015 µg/mL (≈ 0.0282 µM)
- MIC [9]: 8 µg/mL (≈ 15 µM)
- MIC [10]: 4 µg/mL (≈ 7.52 µM)
- MIC [11]: 0.015 µg/mL (≈ 0.0282 µM)
- MIC [12, 15]: 1 µg/mL (≈ 1.88 µM)
- MIC [14]: 4 µg/mL (≈ 7.52 µM)

SMILES: CO/N=C(\C(=O)N[C@@H]1C(=O)N2C(C(=O)[O-])=C(C[n+]3ccc4[nH]cnc4c3)CS[C@H]12)c1csc(N)n1
- MIC [3]: 0.008 µg/mL (≈ 0.0155 µM)
- MIC [4]: 2 µg/mL (≈ 3.89 µM)
- MIC [5]: 0.008 µg/mL (≈ 0.0155 µM)
- MIC [6]: 8 µg/mL (≈ 15.5 µM)
- MIC [7]: 0.008 µg/mL (≈ 0.0155 µM)
- MIC [8]: 0.008 µg/mL (≈ 0.0155 µM)
- MIC [9]: 2 µg/mL (≈ 3.89 µM)
- MIC [10]: 8 µg/mL (≈ 15.5 µM)
- MIC [11]: 0.008 µg/mL (≈ 0.0155 µM)
- MIC [12, 15]: 2 µg/mL (≈ 3.89 µM)
- MIC [13]: 0.125 µg/mL (≈ 0.243 µM)
- MIC [14]: 8 µg/mL (≈ 15.5 µM)

SMILES: CO/N=C(\C(=O)N[C@@H]1C(=O)N2C(C(=O)[O-])=C(C[n+]3ccc4[nH]c(-c5ccccc5)nc4c3)CS[C@H]12)c1csc(N)n1
- MIC [1]: 0.5 µg/mL (≈ 0.847 µM)
- MIC [2]: 128 µg/mL (≈ 217 µM)
- MIC [4]: 2 µg/mL (≈ 3.39 µM)
- MIC [5]: 0.015 µg/mL (≈ 0.0254 µM)
- MIC [7]: 0.008 µg/mL (≈ 0.0135 µM)
- MIC [9]: 8 µg/mL (≈ 13.5 µM)
- MIC [10]: 2 µg/mL (≈ 3.39 µM)
- MIC [11]: 0.008 µg/mL (≈ 0.0135 µM)
- MIC [13]: 1 µg/mL (≈ 1.69 µM)
- MIC [14]: 128 µg/mL (≈ 217 µM)

SMILES: CO/N=C(\C(=O)N[C@@H]1C(=O)N2C(C(=O)[O-])=C(C[n+]3ccc(CC(=O)NO)cc3)CS[C@H]12)c1csc(N)n1 (stereo in doubt; 19)
- MIC [12]: 2 µg/mL (≈ 3.65 µM)

Source: ChEMBL document CHEMBL1124865, “Synthesis and biological evaluation of a series of parenteral 3'-quaternary ammonium cephalosporins” (J Med Chem, 1990)
